According to paper PMC8963254, “Effects of Lysine N-ζ-Methylation in Ultrashort Tetrabasic Lipopeptides (UTBLPs) on the Potentiation of Rifampicin, Novobiocin, and Niclosamide in Gram-Negative Bacteria” (Antibiotics, 2022):
Values after ≈ are worked out from the molar mass of the structure shown. Values joined by “and” are separate entries in the source; they are usually repeats but may differ in a detail not shown here. Equal entries are not always repeated. Where two headings read alike, the source gives them in different places.

Columns and labels:
[1] = system: P. aeruginosa PA259-96196; assay: microbe, parasite or virus in culture; format: cell-based, Pseudomonas aeruginosa; conditions: Pseudomonas aeruginosa, PA25996196, 18 h; P. aeruginosa 259-96196; read-out: MICs of various antibiotics
Procedure: (§1) The in vitro antibacterial activity of the UTBLPs was assessed against wild-type and clinically isolated bacterial strains. To obtain the MIC of the compounds, the microbroth dilution susceptibility assay was performed according to the Clinical and Laboratory Standards Institute (CLSI, Wayne, PA, USA) guidelines and as previously described. Briefly, the compounds at varying concentrations were incubated with bacterial inoculum (5 × 10^5 CFU/mL final concentration) at 37 °C for 18 h. Growth in the form of turbidity was confirmed using an EMax Plus microplate reader (Molecular Devices, San Jose, CA, USA) at 590 nm.

[2] = system: P. aeruginosa PA262-101856; assay: microbe, parasite or virus in culture; format: cell-based, Pseudomonas aeruginosa; conditions: Pseudomonas aeruginosa, PA262101856, 18 h; P. aeruginosa 262-101856; read-out: MICs of various antibiotics
Procedure: as §1

A. baumannii AB027 [3] = assay: microbe, parasite or virus in culture; format: cell-based, Acinetobacter baumannii; conditions: Acinetobacter baumannii, 18 h; A. baumannii AB027; read-out: MICs of various antibiotics
Procedure: as §1

E. coli 94393 [4] = assay: microbe, parasite or virus in culture; format: cell-based, Escherichia coli; conditions: Escherichia coli, 18 h; E. coli 94393 (mcr-1 +); read-out: MICs of various antibiotics
Procedure: as §1

E. coli 94474 [5] = assay: microbe, parasite or virus in culture; format: cell-based, Escherichia coli; conditions: Escherichia coli, 18 h; E. coli 94474 (mcr-1 +); read-out: MICs of various antibiotics
Procedure: as §1

K. pneumoniae 113250 [6] = assay: microbe, parasite or virus in culture; format: cell-based, Klebsiella pneumoniae; conditions: Klebsiella pneumoniae, 18 h; K. pneumoniae 113250; read-out: MICs of various antibiotics
Procedure: as §1

A. baumannii AB92247 = assay: microbe, parasite or virus in culture; format: cell-based, Acinetobacter baumannii; conditions: Acinetobacter baumannii, AB92247, 18 h; A. baumannii 92247; read-out: MICs of various antibiotics
Procedure: as §1

E. cloacae 118564 [7] = assay: microbe, parasite or virus in culture; format: cell-based, Enterobacter cloacae; conditions: Enterobacter cloacae, 18 h; E. cloacae 118564; read-out: MICs of various antibiotics
Procedure: as §1

P. aeruginosa PAO1 = format: cell-based, Pseudomonas aeruginosa
Procedure: (§2) The synergy of the UTBLPs with various antibiotics was assessed using checkerboard assay as previously described. Briefly, the combination of antibiotic and OMP at varying concentrations were incubated with bacterial inoculum (5 × 10^5 CFU/mL final concentration) at 37 °C for 18 h. Growth in the form of turbidity was confirmed using an EMax Plus microplate reader (Molecular Devices, Union City, CA, USA) at 590 nm. Fractional inhibitory concentration index (FICI) was used to evaluate the interaction between the antibiotic and the OMP. FICI is the sum of the FIC of the antibiotic and the FIC of the OMP. The FIC value is calculated by dividing the MIC of the agents in combination by the MIC of the agent alone. FICI ≤ 0.5 is synergistic, 0.5 < x ≤ 4 is additive, and >4 is antagonistic.

A. baumannii ATCC 17978 = format: cell-based, Acinetobacter baumannii
Procedure: as §2

E. coli ATCC 25922 = format: cell-based, Escherichia coli
Procedure: as §2

[8] = system: P. aeruginosa PA259-96196; format: cell-based, Pseudomonas aeruginosa
Procedure: as §2

[9] = system: P. aeruginosa PA262-101856; format: cell-based, Pseudomonas aeruginosa
Procedure: as §2

A. baumannii 92247 = format: cell-based, Acinetobacter baumannii
Procedure: as §2

A. baumannii AB027 [10] = format: cell-based, Acinetobacter baumannii
Procedure: as §2

E. coli 94393 [11] = format: cell-based, Escherichia coli
Procedure: as §2

E. coli 94474 [12] = format: cell-based, Escherichia coli
Procedure: as §2

E. cloacae 118564 [13] = format: cell-based, Enterobacter cloacae
Procedure: as §2

K. pneumoniae 113250 [14] = format: cell-based, Klebsiella pneumoniae; conditions: rifampicin alone
Procedure: as §2

MIC [1] [µg/mL] | MIC [2] [µg/mL] | MIC (A. baumannii AB027 [3]) [µg/mL] | MIC (E. coli 94393 [4]) [µg/mL] | MIC (E. coli 94474 [5]) [µg/mL] | MIC (K. pneumoniae 113250 [6]) [µg/mL] | Compound | other results
64 (≈ 115 µM) | 64 (≈ 115 µM) | 1 (≈ 1.8 µM) | 4 (≈ 7.19 µM) | 16 (≈ 28.7 µM) | 2 (≈ 3.59 µM) | CN(C)c1cc(CNCC(C)(C)C)c(O)c2c1C[C@H]1C[C@H]3[C@H](N(C)C)C(O)=C(C(N)=O)C(=O)[C@@]3(O)C(O)=C1C2=O [OMC, omadacycline] | –
32 (≈ 54.6 µM) | 32 (≈ 54.6 µM) | 4 (≈ 6.83 µM) | 0.25 (≈ 0.427 µM) | 1 (≈ 1.71 µM) | – | CN(C)c1cc(NC(=O)CNC(C)(C)C)c(O)c2c1C[C@H]1C[C@H]3[C@H](N(C)C)C(O)=C(C(N)=O)C(=O)[C@@]3(O)C(O)=C1C2=O [TGC, tigecycline] | MIC (A. baumannii AB92247): 0.25 µg/mL (≈ 0.427 µM)
256 (≈ 548 µM) | 1020 (≈ 2190 µM) | – | ≤ 0.5 | 32 (≈ 68.4 µM) | ≤ 0.5 | NC[C@H]1O[C@H](O[C@H]2[C@H](O)[C@@H](O[C@H]3O[C@H](CO)[C@@H](O)[C@H](N)[C@H]3O)[C@H](N)C[C@@H]2N)[C@H](N)C[C@@H]1O [TOB, tobramycin] | MIC (E. cloacae 118564 [7]): 1 µg/mL (≈ 2.14 µM)

More lines, now with the values behind:

Compound | MIC [1] [µg/mL] | MIC [2] [µg/mL] | MIC (A. baumannii AB027 [3]) [µg/mL] | MIC (E. coli 94393 [4]) [µg/mL] | MIC (E. coli 94474 [5]) [µg/mL] | MIC (K. pneumoniae 113250 [6]) [µg/mL] | other results
C[C@@H](O)[C@H]1C(=O)N2C(C(=O)O)=C(SCCN=CN)C[C@H]12 [IMI, imipenem] | 32 (≈ 107 µM) | 32 (≈ 107 µM) | 32 (≈ 107 µM) | 0.25 (≈ 0.835 µM) | 0.25 (≈ 0.835 µM) | 0.25 (≈ 0.835 µM) | –
C[C@H]1COc2c(N3CCN(C)CC3)c(F)cc3c(=O)c(C(=O)O)cn1c23 [LEV, levofloxacin] | 256 (≈ 708 µM) | 64 (≈ 177 µM) | 8 (≈ 22.1 µM) | 1 (≈ 2.77 µM) | 32 (≈ 88.6 µM) | 0.125 (≈ 0.346 µM) | –
CN(C)c1ccc(O)c2c1C[C@H]1C[C@H]3[C@H](N(C)C)C(O)=C(C(N)=O)C(=O)[C@@]3(O)C(O)=C1C2=O [MIN, minocycline] | 32 (≈ 69.9 µM) | 64 (≈ 140 µM) | 0.25 (≈ 0.546 µM) | 2 (≈ 4.37 µM) | 64 (≈ 140 µM) | 2 (≈ 4.37 µM) | MIC (A. baumannii AB92247): 0.125 µg/mL (≈ 0.273 µM)
COc1c(N2C[C@@H]3CCCN[C@@H]3C2)c(F)cc2c(=O)c(C(=O)O)cn(C3CC3)c12 [MOX, moxifloxacin] | > 16 | > 16 | 8 (≈ 19.9 µM) | 1 (≈ 2.49 µM) | 16 (≈ 39.9 µM) | ≤ 0.06 | MIC (E. cloacae 118564 [7]): 0.12 µg/mL (≈ 0.299 µM)
O=C(Nc1ccc([N+](=O)[O-])cc1Cl)c1cc(Cl)ccc1O [Niclosamide, niclosamide] | – | – | – | – | – | – | MICantibiotic (P. aeruginosa PAO1; niclosamide alone): 1024 µg/mL; MICantibiotic (A. baumannii ATCC 17978; niclosamide alone): 1024 µg/mL and > 1024 µg/mL and 512 µg/mL; MICantibiotic (E. coli ATCC 25922; niclosamide alone): > 128 µg/mL and > 256 µg/mL
CO[C@@H]1[C@@H](OC(N)=O)[C@@H](O)[C@H](Oc2ccc3c(O)c(NC(=O)c4ccc(O)c(CC=C(C)C)c4)c(=O)oc3c2C)OC1(C)C [Novobiocin, novobiocin] | – | – | – | – | – | – | MICantibiotic ([8]; novobiocin alone): 2048 µg/mL and 1024 µg/mL; MICantibiotic ([9]; novobiocin alone): 1024 µg/mL and 2048 µg/mL and > 1024 µg/mL; MICantibiotic (P. aeruginosa PAO1; novobiocin alone): 512 µg/mL and 1024 µg/mL; MICantibiotic (A. baumannii 92247; novobiocin alone): 2 µg/mL and 4 µg/mL; MICantibiotic (A. baumannii AB027 [10]; novobiocin alone): 8 µg/mL and 16 µg/mL; MICantibiotic (E. coli 94393 [11]; novobiocin alone): 128 µg/mL and 64 µg/mL; MICantibiotic (E. coli 94474 [12]; novobiocin alone): 256 µg/mL and 128 µg/mL; MICantibiotic (E. coli ATCC 25922; novobiocin alone): 32 µg/mL and 64 µg/mL; MICantibiotic (E. cloacae 118564 [13]; novobiocin alone): 256 µg/mL
CO[C@H]1/C=C/O[C@@]2(C)Oc3c(C)c(O)c4c(O)c(c(/C=N/N5CCN(C)CC5)c(O)c4c3C2=O)NC(=O)/C(C)=C\C=C\[C@H](C)[C@H](O)[C@@H](C)[C@@H](O)[C@@H](C)[C@H](OC(C)=O)[C@@H]1C [Rifampicin, rifampicin] | – | – | – | – | – | – | MICantibiotic ([8]; rifampicin alone): 16 µg/mL; MICantibiotic ([9]; rifampicin alone): 512 µg/mL and 1024 µg/mL; MICantibiotic (P. aeruginosa PAO1; rifampicin alone): 16 µg/mL and 8 µg/mL; MICantibiotic (A. baumannii 92247; rifampicin alone): 1 µg/mL and 2 µg/mL; MICantibiotic (A. baumannii AB027 [10]; rifampicin alone): 1 µg/mL; MICantibiotic (A. baumannii ATCC 17978; rifampicin alone): 1 µg/mL and 2 µg/mL; MICantibiotic (E. coli 94393 [11]; rifampicin alone): 4 µg/mL; MICantibiotic (E. coli 94474 [12]; rifampicin alone): 4 µg/mL and 8 µg/mL; MICantibiotic (E. coli ATCC 25922; rifampicin alone): 4 µg/mL and 2 µg/mL; MICantibiotic (E. cloacae 118564 [13]; rifampicin alone): 8 µg/mL; MICantibiotic (K. pneumoniae 113250 [14]): 16 µg/mL and 8 µg/mL
